Values after ≈ are worked out from the molar mass of the structure shown. Read-outs that look alike come from different tables or passages of the source.
Test: Solubility of budesonide at room temperature
Format: physicochemical
Description: The solubility at room temperature of budesonide in water was determined to be about. 0.01 mg/ml, about 1 mg/ml in glycerin and about 10 mg/ml in propylene glycol at room temperature.

- solubility (organic solvent or mixture, glycerin, read-out: solubility in glycerin): ~1000 µg/mL (≈ 2320 µM)
- solubility (organic solvent or mixture, propylene glycol, read-out: solubility in propylene glycol): ~10000 µg/mL (≈ 23200 µM)
- solubility (water, read-out: solubility in water): ~10 µg/mL (≈ 23.2 µM)
SMILES: CCCC1O[C@@H]2C[C@H]3[C@@H]4CCC5=CC(=O)C=C[C@]5(C)[C@H]4[C@@H](O)C[C@]3(C)[C@]2(C(=O)CO)O1 (stereo partly drawn) [budesonide, 16,17-butylidenebis(oxy)-11,21-dihydroxy-, (11β, 16α)-pregna-1,4-diene-3,20-dione]

Reference: patent US12539306B2, “Mucoadhesive pharmaceutical compositions of corticosteroids” (Ferring B.V., priority 2018, dated 2026)
